Assay results taken from article PMC12497685, “Anticoronavirus Isoquinoline Alkaloids: Unraveling the Secrets of Their Structure–Activity Relationship” (Influenza and Other Respiratory Viruses, 2025).
Values joined by “and” are separate entries in the source; they are usually repeats but may differ in a detail not shown here. Equal entries are not always repeated. Where two headings read alike, the source gives them in different places.

Assays:
in vitro = conditions: human
Huh7 cells = conditions: at 10 μM, compared with vehicle control, n = 1
[1] = tested on: hACE‐2‐overexpressed HEK293T (ACE2‐293T cells)
HCoV‐229E = experiment: microbe, parasite or virus in culture; format: cell-based; conditions: for inhibition at 10 µM: Human coronavirus 229E, Huh-7, read-out: Protective effects HCoV-229E %; for inhibition at 10 µM / Protective effects HCoV-229E %: compared with vehicle control, Huh7 cells, n = 1, at 10 μM

Row | Molecule | Cytotoxicity to the host Huh7 cells % (Huh7 cells) | Protective effects HCoV-229E % (HCoV‐229E) | other results
1 | COc1cc2c3cc1Oc1c(O)c(OC)cc4c1[C@@H](Cc1ccc(O)c(c1)Oc1ccc(cc1)C[C@@H]3N(C)CC2)N(C)CC4 [Compound 19, (+)‐obamegine] | — (Non-toxic (insignificant cytotoxic effects, below 20%)) |  | viability at 10 µM (in vitro): 97.5 ± 7.15%; cytotoxicity towards hACE2‐293 T cells (in words) [1]: nontoxic; inhibition at 10 µM (HCoV‐229E): 80%
2 | COc1cc2c3cc1Oc1c(OC)c(OC)cc4c1[C@@H](Cc1ccc(O)c(c1)Oc1ccc(cc1)C[C@@H]3N(C)CC2)N(C)CC4 [Compound 17, (+)‐berbamine] | 25% and ~ 20% |  | viability at 10 µM (in vitro): 103 ± 2.42%; cytotoxicity towards hACE2‐293 T cells (in words) [1]: nontoxic; inhibition at 10 µM (HCoV‐229E): 70%
3 | (±)‐Haemanthidine [Compound 1] | 20% and ~ 20% | 80% | cytotoxicity towards hACE2‐293 T cells (in words) [1]: toxic; Cell viability (%) ([1]; ACE2-293T, 10 μM, 24 h, WST-1): 51.97 ± 7.07%; EC50 (HCoV‐229E): 4.11 ± 0.41 µM
4 | CN1CCC2=C[C@H](O)[C@H]3OC(=O)c4cc5c(cc4[C@H]3[C@@H]21)OCO5 [Compound 12, hippeastrine] | 25% | — (Not active (insignificant protective effects below 20%)) | 
5 | COc1ccc2c(c1OC)CN1CCc3cc4c(cc3C1C2)OCO4 (stereo not drawn) [Compound 26, (+)‐canadine] | — (Non-toxic (insignificant cytotoxic effects, below 20%)) | — (Not active (insignificant protective effects below 20%)) | 
6 | CO[C@@H]1C=C[C@@]23c4cc5c(cc4CO[C@]2(O)CN(C)[C@H]3C1)OCO5 [Compound 5, (+)‐tazettine] | — (Non-toxic (insignificant cytotoxic effects, below 20%)) | — (Not active (insignificant protective effects below 20%)) | 
7 | O=C1c2ccccc2-c2c3c(cc4ccnc1c24)OCO3 [Compound 62, liriodenine] | — (Non-toxic (insignificant cytotoxic effects, below 20%)) |  | inhibition at 10 µM (HCoV‐229E): < 20%
8 | O[C@H]1[C@H]2c3cc4c(cc3CN3CCC(=C[C@@H]1O)[C@H]23)OCO4 [Compound 9, lycorine] | — (Non-toxic (insignificant cytotoxic effects, below 20%)) |  | inhibition at 10 µM (HCoV‐229E): < 20%
9 | COc1ccc2c(c1O)-c1c3c(cc4c1[C@H](C2)N(C)CC4)OCO3 [Compound 28, (+)‐bulbocapnine] | — (Non-toxic (insignificant cytotoxic effects, below 20%)) | — (Not active (insignificant protective effects below 20%)) | 
10 | COc1cc2c(cc1O)[C@@H]1[C@H](O)[C@@H](OC)C=C3CCN(C2)[C@H]31 [Compound 4, 9‐O‐demethylgalanthine] | — (Non-toxic (insignificant cytotoxic effects, below 20%)) | — (Not active (insignificant protective effects below 20%)) | 
11 | COc1cc2c(cc1OC)[C@H]1[C@@H](C)c3ccc(OC)c(OC)c3CN1CC2 [Compound 31, (+)‐corydaline] | — (Non-toxic (insignificant cytotoxic effects, below 20%)) | — (Not active (insignificant protective effects below 20%)) | 
12 | COc1ccc2cc3n(c(=O)c2c1OC)CCc1cc2c(cc1-3)OCO2 [Compound 22, 8‐oxoberberine] | — (Non-toxic (insignificant cytotoxic effects, below 20%)) | — (Not active (insignificant protective effects below 20%)) | 
13 | (+)‐aromoline [Compound 16] | — (Non-toxic (insignificant cytotoxic effects, below 20%)) | 85% | cytotoxicity towards hACE2‐293 T cells (in words) [1]: nontoxic; Cell viability (%) ([1]; 10 µM): 103.64 ± 3.23%; EC50 (HCoV‐229E): 4.33 ± 0.9 µM
14 | seco‐isopowellaminone [Compound 6] | 20% | — (Not active (insignificant protective effects below 20%)) | 
15 | COC1=CC=C2[C@H]3Cc4ccc(OC)c5c4[C@@]2(CCN3C)[C@H]1O5 [Compound 54, thebaine] | — (Non-toxic (insignificant cytotoxic effects, below 20%)) |  | inhibition at 10 µM (HCoV‐229E): < 20%
16 | c1cc2c(c3c1C[C@H]1c4cc5c(cc4CCN1C3)OCO5)OCO2 [Compound 49, (−)‐stylopine] | — (Non-toxic (insignificant cytotoxic effects, below 20%)) | — (Not active (insignificant protective effects below 20%)) | 
17 | (−)‐O‐methylcaryachine [Compound 35] | — (Non-toxic (insignificant cytotoxic effects, below 20%)) | — (Not active (insignificant protective effects below 20%)) | 
18 | CN1CCC2=CCC3OC(O)c4cc5c(cc4C3C21)OCO5 (centres unmarked) [Compound 8, oduline] | 20% | — (Not active (insignificant protective effects below 20%)) | 
19 | (−)‐berkristine [Compound 21] | — (Non-toxic (insignificant cytotoxic effects, below 20%)) | 65% | 
20 | N‐methyllaurotetanine [Compound 56] | — (Non-toxic (insignificant cytotoxic effects, below 20%)) | — (Not active (insignificant protective effects below 20%)) | 
21 | O[C@@H]1CC=C2CCN3Cc4cc5c(cc4[C@H]1[C@@H]23)OCO5 [Compound 15, (−)‐caranine] | — (Non-toxic (insignificant cytotoxic effects, below 20%)) | — (Not active (insignificant protective effects below 20%)) | 
22 | COc1ccc(Cc2nccc3cc(OC)c(OC)cc23)cc1OC [Compound 53, papaverine] | 20% |  | inhibition at 10 µM (HCoV‐229E): < 20%
23 | COc1cc2c(cc1OC)C1Cc3ccc(OC)c(O)c3C(C2)N1C (stereo not drawn) [Compound 24, (−)‐platycerine] | — (Non-toxic (insignificant cytotoxic effects, below 20%)) | — (Not active (insignificant protective effects below 20%)) | 
